Test results as given in ChEMBL document CHEMBL1201862, “PubChem BioAssay data set” (2004).
The source made the active and inactive calls.

What was measured:
INS1 = test: beta cell apoptosis inhibitors, cytokine rescue, dose response, luminescence, retest (AID 449756); format: functional, cell-based; details: Rattus norvegicus;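 note: cell death triggered by IL-1 beta plus TNF-alpha plus IFN-gamma mixture; protective hits raise ATP signal compared with cytokine alone wells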
BJ = test: cytotoxicity toward BJ-TERT-LT-ST fibroblasts, dose response, cell-based, RAS-independent, luminescence (AID 1935); format: functional; details: Homo sapiens;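 note: BJ fibroblasts immortalized with TERT plus LT and ST oncogenes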
[1] = THP-1 cell cytotoxicity, dose response, cytotoxicity control for non-replicating M. tuberculosis project (AID 489025); format: functional
[2] = target: Luciferin 4-monooxygenase (Photinus pyralis, UniProt P08659); test: firefly luciferase enzyme inhibitors, dose response, biochemical, luminescence (AID 1891)
[3] = target: Receptor tyrosine-protein kinase erbB-4 (Homo sapiens, UniProt Q15303); format: functional;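 note: ERBB4 member of a kinome-wide kinase profiling panel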
[4] = target: Serine/threonine-protein kinase Nek2 (Homo sapiens, UniProt P51955); format: functional
[5] = target: Protein kinase C zeta type (Homo sapiens, UniProt Q05513); format: functional;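 note: measured as one member of a broad kinase profiling panel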
[6] = target: MAP kinase-interacting serine/threonine-protein kinase 2 (Homo sapiens, UniProt Q9HBH9); format: functional
[7] = target: MAP kinase-activated protein kinase 3 (Homo sapiens, UniProt Q16644); format: functional;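 note: value comes from a kinome-wide profiling panel in which MAPKAPK3 is one of the panel members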
[8] = target: 3-phosphoinositide-dependent protein kinase 1 (Homo sapiens, UniProt O15530); format: functional;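 note: value comes from the Navigating the Kinome panel, PDPK1 member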
[9] = target: Serine/threonine-protein kinase Nek4 (Homo sapiens, UniProt P51957); format: functional
[10] = target: cAMP-dependent protein kinase catalytic subunit PRKX (Homo sapiens, UniProt P51817); format: functional
[11] = target: Serine/threonine-protein kinase BRSK1 (Homo sapiens, UniProt Q8TDC3); format: functional;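 note: measured within a kinome-wide kinase panel, with the target listed as KIAA1811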
[12] = target: Ribosomal protein S6 kinase alpha-3 (Homo sapiens, UniProt P51812); format: functional;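 note: measured within a kinome-wide profiling panel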
[13] = target: Serine/threonine-protein kinase N2 (Homo sapiens, UniProt Q16513); format: functional
[14] = target: Serine/threonine-protein kinase Chk1 (Homo sapiens, UniProt O14757); format: functional;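 note: measured as one member of a kinome-wide kinase profiling panel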
[15] = target: Cyclin-dependent kinase 2 (Homo sapiens, UniProt P24941); format: functional;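 note: CDK2 measured as one member of a broad kinome profiling panel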
LIM domain kinase 1 = LIM domain kinase 1 (Homo sapiens, UniProt P53667); test: Navigating the Kinome. Panel member name: LIMK1; format: functional
[16] = target: Serine/threonine-protein kinase PLK1 (Homo sapiens, UniProt P53350); format: functional;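 note: PLK1 measured as one member of a kinome-wide profiling panel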
Focal adhesion kinase 1 = Focal adhesion kinase 1 (Homo sapiens, UniProt Q05397); format: functional;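 note: measured as one member of a kinome panel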
[17] = target: Phosphorylase b kinase gamma catalytic chain, liver/testis isoform (Homo sapiens, UniProt P15735); format: functional;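 note: PHKG2 measured as one member of a kinome-wide kinase panel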
[18] = target: Heat shock protein HSP 90-alpha (Homo sapiens, UniProt P07900); test: Luminescence-based dose response biochemical high throughput screening assay for inhibitors of the Heat Shock Protein 90 (HSP90). [Related pubchem assays: 1831 (Summary AID.), 1846 (Confirmation screen.), 1789 (Primary screen.)]
Paired box protein Pax-8 = Paired box protein Pax-8 (Homo sapiens, UniProt Q06710); test: inhibitors of PAX8-driven TPO luciferase reporter, dose response, RMG-I cells, cherry-pick (AID 687027); format: functional, cell-based;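 note: luciferase reporter driven by Pax8 target thyroperoxidase promoter measured by SteadyGlo luminescence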
[19] = target: T1, Ubiquitin-conjugating enzyme E2 N (Homo sapiens, UniProt P61088); format: functional;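 note: Dose-response confirmation in a TR-FRET assay detecting UBC13-driven polyubiquitin chain formation, inhibition measured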
T1 sequence (P61088 whole entry): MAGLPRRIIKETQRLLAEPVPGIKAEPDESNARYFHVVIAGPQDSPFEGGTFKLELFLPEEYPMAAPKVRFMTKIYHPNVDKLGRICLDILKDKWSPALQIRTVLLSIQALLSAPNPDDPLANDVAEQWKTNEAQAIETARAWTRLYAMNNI

Insulin-degrading enzyme = target: T2, Insulin-degrading enzyme (Homo sapiens, UniProt P14735); test: activators of endogenous IDE in HEK cells, dose response, cell-based, fluorescence polarization (AID 588439); format: functional
T2 sequence (P14735 whole entry): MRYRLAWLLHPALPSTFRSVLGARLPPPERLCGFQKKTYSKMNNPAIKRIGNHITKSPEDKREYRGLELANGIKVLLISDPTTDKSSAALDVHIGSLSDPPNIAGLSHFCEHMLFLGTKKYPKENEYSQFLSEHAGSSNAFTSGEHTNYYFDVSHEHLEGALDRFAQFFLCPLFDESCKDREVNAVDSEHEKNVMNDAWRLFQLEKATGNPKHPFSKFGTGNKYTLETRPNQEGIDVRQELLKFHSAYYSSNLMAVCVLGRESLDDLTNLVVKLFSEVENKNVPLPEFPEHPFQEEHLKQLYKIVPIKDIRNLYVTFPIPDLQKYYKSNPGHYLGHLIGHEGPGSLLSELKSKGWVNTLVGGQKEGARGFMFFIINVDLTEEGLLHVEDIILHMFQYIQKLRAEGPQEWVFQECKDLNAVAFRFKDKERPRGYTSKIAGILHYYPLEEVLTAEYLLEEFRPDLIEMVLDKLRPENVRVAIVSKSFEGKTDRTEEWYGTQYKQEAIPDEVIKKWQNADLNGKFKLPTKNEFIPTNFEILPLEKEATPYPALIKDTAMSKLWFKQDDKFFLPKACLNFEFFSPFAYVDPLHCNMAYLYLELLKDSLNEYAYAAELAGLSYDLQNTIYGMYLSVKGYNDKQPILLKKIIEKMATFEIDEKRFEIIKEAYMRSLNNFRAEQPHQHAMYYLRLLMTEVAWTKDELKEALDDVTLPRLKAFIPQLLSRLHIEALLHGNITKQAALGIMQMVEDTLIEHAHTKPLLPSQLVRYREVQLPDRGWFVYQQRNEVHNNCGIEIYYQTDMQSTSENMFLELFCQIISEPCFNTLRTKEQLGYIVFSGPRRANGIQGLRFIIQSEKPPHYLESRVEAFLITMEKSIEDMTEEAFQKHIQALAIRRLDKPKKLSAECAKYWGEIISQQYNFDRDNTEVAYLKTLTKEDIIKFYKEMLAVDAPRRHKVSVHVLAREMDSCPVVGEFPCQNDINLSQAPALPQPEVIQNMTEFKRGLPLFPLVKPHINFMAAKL

SUMO-activating enzyme = SUMO-activating enzyme (Homo sapiens, UniProt Q9UBT2); test: SUMOylation inhibitor hit validation, confirmation, SUMOylation inhibitor project, biochemical, AlphaScreen (AID 2018); format: functional

Phosphorylase b kinase gamma catalytic chain, liver/testis isoform, sequence (P15735 whole entry, canonical isoform): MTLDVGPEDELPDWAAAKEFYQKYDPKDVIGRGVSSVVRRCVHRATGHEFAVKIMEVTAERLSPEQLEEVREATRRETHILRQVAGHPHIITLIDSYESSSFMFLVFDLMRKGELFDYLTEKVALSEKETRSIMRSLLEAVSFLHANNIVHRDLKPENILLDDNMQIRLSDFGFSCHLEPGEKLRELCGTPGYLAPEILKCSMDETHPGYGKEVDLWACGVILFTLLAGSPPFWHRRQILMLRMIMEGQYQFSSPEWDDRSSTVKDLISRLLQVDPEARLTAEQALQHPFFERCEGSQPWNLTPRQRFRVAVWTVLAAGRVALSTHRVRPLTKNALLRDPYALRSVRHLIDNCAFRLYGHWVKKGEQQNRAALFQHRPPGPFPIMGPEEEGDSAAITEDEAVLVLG
Serine/threonine-protein kinase Nek4, sequence (P51957 whole entry): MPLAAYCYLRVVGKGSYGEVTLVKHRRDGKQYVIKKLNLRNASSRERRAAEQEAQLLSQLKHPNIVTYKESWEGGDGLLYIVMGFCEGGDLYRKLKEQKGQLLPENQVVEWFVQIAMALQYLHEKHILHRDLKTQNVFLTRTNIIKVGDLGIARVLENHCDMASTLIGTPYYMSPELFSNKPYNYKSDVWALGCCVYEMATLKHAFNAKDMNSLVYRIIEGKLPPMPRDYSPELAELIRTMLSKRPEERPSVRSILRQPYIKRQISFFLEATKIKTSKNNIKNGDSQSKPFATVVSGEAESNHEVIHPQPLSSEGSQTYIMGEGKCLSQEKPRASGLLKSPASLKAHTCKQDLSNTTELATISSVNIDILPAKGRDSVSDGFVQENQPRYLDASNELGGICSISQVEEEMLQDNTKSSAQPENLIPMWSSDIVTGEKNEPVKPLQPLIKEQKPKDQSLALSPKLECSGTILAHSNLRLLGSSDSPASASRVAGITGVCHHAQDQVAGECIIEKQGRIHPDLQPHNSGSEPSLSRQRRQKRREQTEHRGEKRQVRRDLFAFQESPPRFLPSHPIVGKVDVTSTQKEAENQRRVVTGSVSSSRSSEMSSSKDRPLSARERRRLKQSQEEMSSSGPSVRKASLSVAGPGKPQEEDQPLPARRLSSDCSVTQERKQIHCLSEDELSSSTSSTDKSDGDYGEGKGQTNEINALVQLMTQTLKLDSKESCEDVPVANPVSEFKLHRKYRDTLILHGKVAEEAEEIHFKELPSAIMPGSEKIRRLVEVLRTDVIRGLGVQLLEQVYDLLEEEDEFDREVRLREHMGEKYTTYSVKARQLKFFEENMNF
MAP kinase-activated protein kinase 3, sequence (Q16644 whole entry): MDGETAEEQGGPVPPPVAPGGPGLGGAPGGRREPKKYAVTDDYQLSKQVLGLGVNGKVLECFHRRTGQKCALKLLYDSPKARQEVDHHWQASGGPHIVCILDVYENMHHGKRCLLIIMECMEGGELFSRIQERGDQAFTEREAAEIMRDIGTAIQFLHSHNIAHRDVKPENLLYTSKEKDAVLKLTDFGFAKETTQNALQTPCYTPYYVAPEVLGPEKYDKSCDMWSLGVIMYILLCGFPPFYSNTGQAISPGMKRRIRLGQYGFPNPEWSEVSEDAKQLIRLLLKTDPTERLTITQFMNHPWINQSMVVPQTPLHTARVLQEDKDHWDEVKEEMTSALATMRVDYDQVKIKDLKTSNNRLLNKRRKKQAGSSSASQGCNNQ
Serine/threonine-protein kinase N2, sequence (Q16513 whole entry): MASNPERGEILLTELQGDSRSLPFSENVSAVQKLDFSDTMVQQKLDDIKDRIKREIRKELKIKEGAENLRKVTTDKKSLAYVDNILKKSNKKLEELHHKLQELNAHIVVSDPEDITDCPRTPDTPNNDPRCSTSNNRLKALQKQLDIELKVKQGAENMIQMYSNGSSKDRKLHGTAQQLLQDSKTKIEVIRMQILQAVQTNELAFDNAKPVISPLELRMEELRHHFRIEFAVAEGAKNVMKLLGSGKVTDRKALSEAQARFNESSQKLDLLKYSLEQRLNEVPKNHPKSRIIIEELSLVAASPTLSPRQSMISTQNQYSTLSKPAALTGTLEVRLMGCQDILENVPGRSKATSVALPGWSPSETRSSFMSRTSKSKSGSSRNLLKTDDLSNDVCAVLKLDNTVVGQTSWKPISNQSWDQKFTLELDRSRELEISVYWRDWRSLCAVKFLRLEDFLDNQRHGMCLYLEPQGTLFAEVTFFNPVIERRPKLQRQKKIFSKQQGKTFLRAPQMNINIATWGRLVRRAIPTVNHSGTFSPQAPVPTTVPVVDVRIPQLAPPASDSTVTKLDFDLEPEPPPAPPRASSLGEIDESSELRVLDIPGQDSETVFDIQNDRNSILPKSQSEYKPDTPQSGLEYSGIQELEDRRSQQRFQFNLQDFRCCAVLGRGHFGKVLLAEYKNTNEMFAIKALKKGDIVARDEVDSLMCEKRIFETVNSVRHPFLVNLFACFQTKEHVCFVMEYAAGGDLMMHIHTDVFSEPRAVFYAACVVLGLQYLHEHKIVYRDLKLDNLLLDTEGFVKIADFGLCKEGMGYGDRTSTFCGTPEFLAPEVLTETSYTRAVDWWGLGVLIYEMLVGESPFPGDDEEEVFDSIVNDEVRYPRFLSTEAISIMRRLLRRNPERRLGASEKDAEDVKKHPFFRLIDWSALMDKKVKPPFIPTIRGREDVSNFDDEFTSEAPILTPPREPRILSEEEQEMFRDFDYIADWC
3-phosphoinositide-dependent protein kinase 1, sequence (O15530 whole entry): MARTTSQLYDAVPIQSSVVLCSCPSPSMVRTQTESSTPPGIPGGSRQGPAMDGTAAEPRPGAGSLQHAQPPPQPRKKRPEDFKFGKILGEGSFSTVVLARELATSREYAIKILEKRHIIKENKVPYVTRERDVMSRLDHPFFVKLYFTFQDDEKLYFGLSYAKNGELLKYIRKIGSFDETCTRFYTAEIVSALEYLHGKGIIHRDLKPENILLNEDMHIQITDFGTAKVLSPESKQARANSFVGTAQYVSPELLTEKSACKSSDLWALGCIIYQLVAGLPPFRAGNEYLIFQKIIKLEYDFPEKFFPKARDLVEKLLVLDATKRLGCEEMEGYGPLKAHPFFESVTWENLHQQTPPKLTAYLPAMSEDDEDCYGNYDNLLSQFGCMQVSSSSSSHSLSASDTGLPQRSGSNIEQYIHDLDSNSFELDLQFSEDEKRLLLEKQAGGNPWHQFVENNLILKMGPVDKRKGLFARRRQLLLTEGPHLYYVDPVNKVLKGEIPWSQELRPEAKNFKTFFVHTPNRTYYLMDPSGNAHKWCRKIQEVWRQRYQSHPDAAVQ
Protein kinase C zeta type, sequence (Q05513 whole entry): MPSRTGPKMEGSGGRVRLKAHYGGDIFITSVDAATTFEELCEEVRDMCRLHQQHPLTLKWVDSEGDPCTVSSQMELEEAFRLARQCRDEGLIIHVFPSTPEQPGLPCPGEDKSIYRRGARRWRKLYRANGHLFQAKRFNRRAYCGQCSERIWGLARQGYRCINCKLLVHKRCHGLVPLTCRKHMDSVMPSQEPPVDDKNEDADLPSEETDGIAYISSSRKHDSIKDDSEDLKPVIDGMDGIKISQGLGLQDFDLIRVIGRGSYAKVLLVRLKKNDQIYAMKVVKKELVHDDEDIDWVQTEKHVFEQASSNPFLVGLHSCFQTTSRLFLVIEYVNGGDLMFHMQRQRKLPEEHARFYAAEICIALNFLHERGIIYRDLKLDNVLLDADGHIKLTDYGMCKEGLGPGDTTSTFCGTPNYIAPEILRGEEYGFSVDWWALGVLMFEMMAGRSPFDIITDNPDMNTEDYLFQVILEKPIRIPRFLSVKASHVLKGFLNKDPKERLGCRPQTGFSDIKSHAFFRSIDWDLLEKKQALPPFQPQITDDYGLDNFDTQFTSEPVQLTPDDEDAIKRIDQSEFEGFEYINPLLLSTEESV
Serine/threonine-protein kinase BRSK1, sequence (Q8TDC3 whole entry): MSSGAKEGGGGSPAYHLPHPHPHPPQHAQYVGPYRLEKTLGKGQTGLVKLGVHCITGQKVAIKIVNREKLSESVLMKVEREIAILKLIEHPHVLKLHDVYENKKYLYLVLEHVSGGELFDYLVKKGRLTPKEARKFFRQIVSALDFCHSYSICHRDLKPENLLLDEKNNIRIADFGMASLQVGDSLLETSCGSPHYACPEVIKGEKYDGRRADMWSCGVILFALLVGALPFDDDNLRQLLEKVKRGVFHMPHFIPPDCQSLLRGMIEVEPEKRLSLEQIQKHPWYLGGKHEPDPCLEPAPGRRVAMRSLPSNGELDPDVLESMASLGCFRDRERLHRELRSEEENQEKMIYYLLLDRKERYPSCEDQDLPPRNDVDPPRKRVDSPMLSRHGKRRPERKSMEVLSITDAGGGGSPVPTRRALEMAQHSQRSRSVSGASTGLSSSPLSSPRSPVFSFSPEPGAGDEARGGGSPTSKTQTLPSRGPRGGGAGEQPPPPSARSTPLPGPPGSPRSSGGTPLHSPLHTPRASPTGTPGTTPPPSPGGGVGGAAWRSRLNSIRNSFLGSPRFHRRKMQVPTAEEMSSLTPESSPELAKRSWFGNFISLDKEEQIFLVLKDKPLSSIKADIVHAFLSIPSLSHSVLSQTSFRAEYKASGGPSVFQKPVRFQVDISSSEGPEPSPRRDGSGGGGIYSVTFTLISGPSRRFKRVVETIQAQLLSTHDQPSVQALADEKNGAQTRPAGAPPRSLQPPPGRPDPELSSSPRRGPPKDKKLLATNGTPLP
cAMP-dependent protein kinase catalytic subunit PRKX, sequence (P51817 whole entry): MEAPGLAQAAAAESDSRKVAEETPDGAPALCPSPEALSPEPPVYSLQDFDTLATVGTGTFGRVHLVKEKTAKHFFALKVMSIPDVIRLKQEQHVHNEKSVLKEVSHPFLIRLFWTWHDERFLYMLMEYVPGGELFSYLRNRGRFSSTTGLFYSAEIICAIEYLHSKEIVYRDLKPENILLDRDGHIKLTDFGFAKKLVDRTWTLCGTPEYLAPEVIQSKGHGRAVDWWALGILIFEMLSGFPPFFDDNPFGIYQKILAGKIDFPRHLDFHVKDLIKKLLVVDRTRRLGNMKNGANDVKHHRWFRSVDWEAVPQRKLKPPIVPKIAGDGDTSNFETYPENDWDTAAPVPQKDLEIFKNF

**Q.** For O=[N+]([O-])c1c(Nc2ccccn2)cc(Cl)c2nonc12, which AC50 (INS1) is on record?
**A.** 6.13 µM (active)

**Q.** And the EC50 (BJ)?
**A.** 3.95 µM (inconclusive)

**Q.** And the CC50 [1]?
**A.** 20.3 µM (active)

**Q.** What about the EC50 [2] of the same compound?
**A.** > 112 µM (not active)

**Q.** For CC(C)(CO)CNc1nccc(-c2c(-c3ccc(F)cc3)nc3c(CC4CC4)nccn23)n1, which Ki [3] is on record?
**A.** > 3.98 µM (inactive)

**Q.** And the Ki [4]?
**A.** > 10 µM (inactive)

**Q.** And the Ki [5]?
**A.** > 7.94 µM (inactive)

**Q.** What about the Ki [6] of the same compound?
**A.** > 10 µM (inactive)

**Q.** What about the Ki [7] of the same compound?
**A.** > 10 µM (inactive)

**Q.** And the Ki [8]?
**A.** > 3.98 µM (inactive)

**Q.** And the Ki [9]?
**A.** > 6.31 µM (inactive)

**Q.** What about the Ki [10] of the same compound?
**A.** > 1.58 µM (inactive)

**Q.** And the Ki [11]?
**A.** > 10 µM (inactive)

**Q.** And the Ki [12]?
**A.** > 7.94 µM (inactive)

**Q.** And the Ki [13]?
**A.** > 7.94 µM (inactive)

**Q.** What about the Ki [14] of the same compound?
**A.** > 7.94 µM (inactive)

**Q.** And the Ki [15]?
**A.** > 7.94 µM (inactive)

**Q.** What about the Ki (LIM domain kinase 1) of the same compound?
**A.** 126 nM (active)

**Q.** And the Ki [16]?
**A.** > 7.94 µM (inactive)

**Q.** And the Ki (Focal adhesion kinase 1)?
**A.** > 1.58 µM (inactive)

**Q.** What about the Ki [17] of the same compound?
**A.** > 5.01 µM (inactive)

**Q.** For Cc1ccc(S(=O)(=O)/N=C2\C=C(Nc3cccc(C(=O)O)c3)C(=O)c3ccccc32)cc1, which IC50 [18] is on record?
**A.** 524 nM (active)

**Q.** For CC[C@@H](C)[C@H](CNC)NC[C@@H](Cc1cccc2ccccc12)NCCc1cccc(C(F)(F)F)c1, which AC50 (Paired box protein Pax-8) is on record?
**A.** 11.9 µM (active)

**Q.** And the IC50 [19]?
**A.** > 20 µM (inactive)

**Q.** What about the EC50 (Insulin-degrading enzyme) of the same compound?
**A.** 6.41 µM (active)

**Q.** Which IC50 (SUMO-activating enzyme) does the source give for Cc1ccc(C(=O)NC2(O)C(=O)c3ccccc3C2=O)cc1C here?
**A.** 870 nM (active)
